One data set in a line: in vitro. The class given is in vitro ADME. The note with it: human, plasma. How it is done: A stock solution of 200 μg/ml of peptide in PBS was diluted into 1.5 ml of human plasma or PBS to achieve a final concentration of 10 μg/ml. Of this solution, 50 μl was then dispensed into 200 μl Max Recovery tubes (Axygen Scientific) in triplicate for each time point needed in the study. The tubes were incubated at 37° C. and at the appropriate time point, they were removed from the incubator and 150 μl of extraction solution (75% acetonitrile/25% water+2% formic acid) was added. The tubes were vortexed for 15 sec and then centrifuged at 11,000 RPM for 5 mins at 4° C. Then, 100 μl of the supernatant was transferred into HPLC vials for analysis.
A fixed mobile phase was used so that all of the different charged species of peptide would elute at the same time, allowing a mass measurement of non-degraded material. Injection volume: 10 μl; Column: Phenomenex Aqua C18 5 μM 150 mm×4.6 mm; Flow: 0.8 ml/min; 85% Mobile phase A: 4% formic acid in nanopure water; 15% Mobile phase B: acetonitrile; RT: 1.3 minutes; Stop time: 3.0 minutes. Mass Spectrometer: MS-03 LC/MSD Trap XCT Ultra.

The test system of data set [1] is primary cortical neuronal cultures. In words: Glutamate excitotoxicity in primary cortical neuronal cultures, neuronal viability by MTS assay. The class given is cell-based, rat. As to conditions: Sprague-Dawley, rat, 18 h. The protocol:
Neurons were resuspended in Neurobasal (NB; Invitrogen) containing 2% B27 supplement (B27; Invitrogen). Before seeding, culture vessels comprising either a 96-well plastic plate or 24-well plastic plate with 13 mm glass coverslips (ProSciTech, Australia), were coated with poly-D-lysine (50 μg/mL; 70-150K; Sigma) and incubated overnight at room temperature. […] Neurons were plated to obtain approximately 10,000 viable neurons for each well of a 96-well plate, or 200,000 viable neurons per well of a 24-well plate, on day in vitro (DIV) […]. […] On DIV 4, one third of the culture medium was removed and replaced with fresh NB/2% B27 containing the mitotic inhibitor, cytosine arabinofuranoside (Sigma) at 1 μM concentration. On DIV 8, one half of the culture medium was replaced with NB/2% B27.
To induce glutamate excitotoxicity in the cortical neuronal cultures (96-well plate format), 50 μl of conditioned media containing 200 μM glutamate was added to culture wells containing 50 μl conditioned media (100 μM final glutamate concentration). Cultures were incubated at 37° C. in a CO2 incubator for 5 minutes, after which time the media was replaced with 100 μl of 50% NB/2% N2 and 50% balance salt solution (NB/N2:BSS).
Untreated and glutamate-treated control samples received media additions with and without glutamate respectively.
Eighteen hours after glutamate exposure, neuronal cultures were examined by light microscopy for qualitative assessment of neuronal damage. Neuronal viability was quantitatively measured by 3-(4,5,dimethyliazol-2-yl)-5-(3-carboxymethoxy-phenyl)-2-(4-sulfophenyl)-2H-tetrazolium salt (MTS) assay (Promega, Australia). The MTS assay measures the mitochondrial conversion of the tetrazolium salt to a water-soluble brown formazan salt, which is detected spectrophotometrically at 495 nm. MTS absorbance data was converted to reflect proportional cell viability relative to both the untreated and glutamate treated controls. […] All assays were performed with quadruplicate sister neuronal cultures repeated a minimum of four times independently.
Background: Tetrazolium assays rely on reduction of a dye to a coloured formazan, in cell work by metabolically active cells.

A short description of the next data set: in vivo. The note with it: male, Sprague-Dawley, rat, iv, 3 mg/kg. How it is done:
Male Sprague-Dawley rats (276-310 g) were dosed with peptide by i.v injection via the jugular vein. The calculated dose for each animal was 3 mg/kg of body weight and each isoflurane anaesthetised animal received dosing volumes of 0.1 ml/100 g of body weight of a 3 mg/ml solution. The remaining dosing solutions were subjected to a similar protocol as the solutions that were administered to the animals and were collected pre-labeled Maxymum Recovery (Axygen Scientific) low binding tubes, ready for quantification. Blood samples (0.2 ml) were collected just prior to dosing (pre-dose) and at various time points post-dosing according to the experimental schedule. Blood samples were collected from the jugular vein from the anaesthetized and transferred into 0.5 ml pre-labeled EDTA micro-centrifuge tubes and placed on ice. The tubes were then centrifuged for 5 mins at 3,000 RPM in a bench top microcentrifuge (4° C.). The plasma was transferred to pre-labeled 1.7 ml tubes, stored in a −80° C. freezer prior to analysis by LC-MS.
Analysis: Sample Preparation: 50 μl of plasma was added to 150 μl of precipitating solvent (75% acetonitrile/25% water+2% formic acid) and vortexed for 15 sec. The solution was centrifuged at 11,000 rpm at 4° C. for 5 mins. 100 μl of the supernatant was transferred to a HPLC vial for quantification. […]

For data set [2] the following is noted: rabbit blood; cited from earlier work.

These results are taken from US8063012B2, “Neuroprotective peptide inhibitors of AP-1 signaling and uses therefor” (Phylogica Limited, priority 2006, dated 2011).

Non-standard residues stand in square brackets, D forms with d. Residues, ends and D or L forms follow the SMILES beside them. Bounds are passed on as bounds.

In general, half-life refers to the time needed for the level to fall by half in the phase considered. A low value points to fast loss.

`CC[C@@H](C)[C@@H](NC(=O)[C@@H](CCC(=O)O)NC(=O)[C@@H](CO)NC(=O)[C@@H](CO)NC(=O)[C@@H](CO)NC(=O)[C@@H](CCCCN)NC(=O)[C@@H](CCCNC(=N)N)NC(=O)[C@@H](CCC(=O)O)NC(=O)[C@H](N)CCCNC(=N)N)C(=O)NCC(=O)NCC(=O)N[C@H](CO)C(=O)N[C@H](CCCNC(=N)N)C(=O)N[C@@H](C(=O)N[C@H](CO)C(=O)N[C@H](CCC(N)=O)C(=O)N[C@H](Cc1ccc(O)cc1)C(=O)N[C@H](C)C(=O)NCC(=O)N[C@H](CCCNC(=N)N)C(=O)N[C@H](CCCNC(=N)N)C(=O)N[C@H](CCCNC(=N)N)C(=O)N[C@H](CCC(N)=O)C(=O)N[C@H](CCCNC(=N)N)C(=O)N[C@H](CCCNC(=N)N)C(=O)N[C@H](CCCCN)C(=O)N[C@H](CCCCN)C(=O)N[C@H](CCCNC(=N)N)C(=O)NCC(=O)O)[C@H](C)CC` [PYC35D-TAT] (H-[dR][dE][dR][dK][dS][dS][dS][dE][dI]GG[dS][dR][dI][dS][dQ][dY][dA]G[dR][dR][dR][dQ][dR][dR][dK][dK][dR]G-OH; N-terminus and C-terminus assumed) had a half-life at 10 μg/ml in “in vitro” of more than 12 h. Moreover, in data set [1] (5 μM), the “neuronal viability following glutamate excitotoxicity” value was 59%. The half-life in “in vivo” is 0.583 h.
`CC[C@@H](C)[C@@H](NC(=O)[C@@H](CCCCN)NC(=O)[C@H]1CCCN1)C(=O)N[C@H](CO)C(=O)N[C@H](CCC(N)=O)C(=O)N[C@H](Cc1ccc(O)cc1)C(=O)NCC(=O)N[C@H](CCC(N)=O)C(=O)N[C@H](CCCNC(=N)N)C(=O)N[C@H](CCCNC(=N)N)C(=O)N[C@H](CCCNC(=N)N)C(=O)NCC(=O)N[C@H](CCC(N)=O)C(=O)N[C@H](CC(C)C)C(=O)NCC(=O)NCC(=O)N[C@H](CCCNC(=N)N)C(=O)N[C@H](CCCNC(=N)N)C(=O)N[C@H](CCCNC(=N)N)C(=O)N[C@H](CCC(N)=O)C(=O)N[C@H](CCCNC(=N)N)C(=O)N[C@H](CCCNC(=N)N)C(=O)N[C@H](CCCCN)C(=O)N[C@H](CCCCN)C(=O)N[C@H](CCCNC(=N)N)C(=O)NCC(=O)O` [PYC36D-TAT] (H-[dP][dK][dI][dS][dQ][dY]G[dQ][dR][dR][dR]G[dQ][dL]GG[dR][dR][dR][dQ][dR][dR][dK][dK][dR]G-OH; N-terminus and C-terminus assumed): the half-life at 10 μg/ml in the data set “in vitro” is more than 12 h. The “neuronal viability following glutamate excitotoxicity” value is recorded as 44% in data set [1] (1 μM) and 82% in data set [1] (5 μM). The same compound showed a half-life in “in vivo” of 1.67 h.
tissue plasminogen activator [tPA]: the “in vivo half life” value in data set [2] was “a few minutes”.
